The structures appear in SMILES notation.

The assay concerns B/Hong-Kong/36/05, mutant strain, resistant to zanamivir and oseltamivir. Format: cell-based, influenza B.

As to `CC(=O)N[C@H]1[C@H]([C@H](O)[C@H](O)CO)OC(C(=O)O)=C[C@@H]1N=C(N)N` [Zanamivir, zanamivir], the IC50 is 210000 nM.

By IC50 is commonly meant the concentration at which inhibition is half-maximal. Read a high IC50 as lower potency.

The record behind these values is patent US20090081249A1 (priority 2007, published 2009).
